Data as given in ChEMBL document CHEMBL1152560, “Substituted 2-arylbenzothiazoles as kinase inhibitors: hit-to-lead optimization” (Bioorg Med Chem, 2009).

Columns and labels:
[1] = molecular target: T1, Megakaryocyte-associated tyrosine-protein kinase (Homo sapiens) (UniProt P42679); assay: Residual activity of MATK at 10 uM by microplate scintillation counting
T1 sequence (whole entry): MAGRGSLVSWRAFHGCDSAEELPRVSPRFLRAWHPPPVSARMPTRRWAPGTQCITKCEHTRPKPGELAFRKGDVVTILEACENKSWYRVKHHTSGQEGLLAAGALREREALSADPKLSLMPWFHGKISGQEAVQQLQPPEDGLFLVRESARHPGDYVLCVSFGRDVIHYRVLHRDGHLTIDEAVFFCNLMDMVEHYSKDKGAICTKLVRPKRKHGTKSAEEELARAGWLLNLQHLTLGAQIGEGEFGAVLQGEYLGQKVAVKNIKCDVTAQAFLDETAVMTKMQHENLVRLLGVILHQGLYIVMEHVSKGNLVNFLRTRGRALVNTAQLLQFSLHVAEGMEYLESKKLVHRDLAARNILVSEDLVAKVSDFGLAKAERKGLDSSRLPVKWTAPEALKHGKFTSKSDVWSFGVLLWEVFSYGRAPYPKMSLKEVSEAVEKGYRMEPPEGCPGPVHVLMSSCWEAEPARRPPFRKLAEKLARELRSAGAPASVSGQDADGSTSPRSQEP

[2] = molecular target: Ribosomal protein S6 kinase alpha-1 (Homo sapiens) (UniProt Q15418); assay: Residual activity of RPS6KA1 at 10 uM by microplate scintillation counting
[3] = molecular target: Tyrosine-protein kinase Lyn (Homo sapiens) (UniProt P07948); assay: Residual activity of LYN at 10 uM by microplate scintillation counting
[4] = molecular target: T2, NUAK family SNF1-like kinase 2 (Homo sapiens) (UniProt Q9H093); assay: Residual activity of SNARK at 0.1 uM by microplate scintillation counting
T2 sequence (whole entry): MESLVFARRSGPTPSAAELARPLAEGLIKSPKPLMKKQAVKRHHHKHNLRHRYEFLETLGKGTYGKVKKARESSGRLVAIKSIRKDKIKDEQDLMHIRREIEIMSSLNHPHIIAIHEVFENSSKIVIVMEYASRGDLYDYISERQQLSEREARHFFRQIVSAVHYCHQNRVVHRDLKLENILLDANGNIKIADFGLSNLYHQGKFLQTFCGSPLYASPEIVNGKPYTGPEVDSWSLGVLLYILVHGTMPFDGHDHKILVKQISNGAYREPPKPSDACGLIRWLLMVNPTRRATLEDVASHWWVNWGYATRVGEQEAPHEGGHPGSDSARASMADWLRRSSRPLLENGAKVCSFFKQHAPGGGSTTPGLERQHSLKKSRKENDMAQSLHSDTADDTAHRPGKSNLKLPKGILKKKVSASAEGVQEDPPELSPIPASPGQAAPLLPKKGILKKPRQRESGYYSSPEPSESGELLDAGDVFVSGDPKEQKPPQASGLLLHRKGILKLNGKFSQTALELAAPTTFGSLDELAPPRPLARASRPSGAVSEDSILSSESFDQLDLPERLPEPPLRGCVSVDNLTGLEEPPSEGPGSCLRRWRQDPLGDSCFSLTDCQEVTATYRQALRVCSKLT

[5] = molecular target: Serine/threonine-protein kinase PLK1 (Homo sapiens) (UniProt P53350); assay: Residual activity of PLK1 at 0.1 uM by microplate scintillation counting
[6] = molecular target: Ephrin type-A receptor 2 (Homo sapiens) (UniProt P29317); assay: Residual activity of EPHA2 at 1 uM by microplate scintillation counting
[7] = molecular target: Serine/threonine-protein kinase WNK2 (Homo sapiens) (UniProt Q9Y3S1); assay: Residual activity of WNK2 at 10 uM by microplate scintillation counting
[8] = molecular target: T3, Mitogen-activated protein kinase 12 (Homo sapiens) (UniProt P53778); assay: Residual activity of p38-gamma at 1 uM by microplate scintillation counting
T3 sequence (whole entry): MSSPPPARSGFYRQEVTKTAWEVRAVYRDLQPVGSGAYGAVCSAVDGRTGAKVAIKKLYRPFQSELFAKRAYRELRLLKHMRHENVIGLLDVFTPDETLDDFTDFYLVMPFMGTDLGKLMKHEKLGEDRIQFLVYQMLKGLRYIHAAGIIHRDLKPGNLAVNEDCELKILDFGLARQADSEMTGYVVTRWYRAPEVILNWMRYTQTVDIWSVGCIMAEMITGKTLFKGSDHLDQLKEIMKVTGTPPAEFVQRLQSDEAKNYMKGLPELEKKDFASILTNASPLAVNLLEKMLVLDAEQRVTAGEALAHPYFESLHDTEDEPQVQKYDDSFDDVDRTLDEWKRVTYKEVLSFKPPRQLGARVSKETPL

[9] = molecular target: CDK4/Cyclin D3 (Homo sapiens) (UniProt P11802+P30281); assay: Residual activity of CDK4/Cyclin D3 at 0.1 uM by microplate scintillation counting; assay type: protein-complex assay
[10] = molecular target: Death-associated protein kinase 1 (Homo sapiens) (UniProt P53355); assay: Residual activity of DAPK1 at 1 uM by microplate scintillation counting
[11] = molecular target: Tyrosine-protein kinase Blk (Homo sapiens) (UniProt P51451); assay: Residual activity of BLK at 1 uM by microplate scintillation counting
[12] = molecular target: Ribosomal protein S6 kinase alpha-5 (Homo sapiens) (UniProt O75582); assay: Residual activity of RPS6KA5 at 0.1 uM by microplate scintillation counting
[13] = molecular target: T4, Serine/threonine-protein kinase DCLK2 (Homo sapiens) (UniProt Q8N568); assay: Residual activity of DCAMKL2 at 1 uM by microplate scintillation counting
T4 sequence (whole entry): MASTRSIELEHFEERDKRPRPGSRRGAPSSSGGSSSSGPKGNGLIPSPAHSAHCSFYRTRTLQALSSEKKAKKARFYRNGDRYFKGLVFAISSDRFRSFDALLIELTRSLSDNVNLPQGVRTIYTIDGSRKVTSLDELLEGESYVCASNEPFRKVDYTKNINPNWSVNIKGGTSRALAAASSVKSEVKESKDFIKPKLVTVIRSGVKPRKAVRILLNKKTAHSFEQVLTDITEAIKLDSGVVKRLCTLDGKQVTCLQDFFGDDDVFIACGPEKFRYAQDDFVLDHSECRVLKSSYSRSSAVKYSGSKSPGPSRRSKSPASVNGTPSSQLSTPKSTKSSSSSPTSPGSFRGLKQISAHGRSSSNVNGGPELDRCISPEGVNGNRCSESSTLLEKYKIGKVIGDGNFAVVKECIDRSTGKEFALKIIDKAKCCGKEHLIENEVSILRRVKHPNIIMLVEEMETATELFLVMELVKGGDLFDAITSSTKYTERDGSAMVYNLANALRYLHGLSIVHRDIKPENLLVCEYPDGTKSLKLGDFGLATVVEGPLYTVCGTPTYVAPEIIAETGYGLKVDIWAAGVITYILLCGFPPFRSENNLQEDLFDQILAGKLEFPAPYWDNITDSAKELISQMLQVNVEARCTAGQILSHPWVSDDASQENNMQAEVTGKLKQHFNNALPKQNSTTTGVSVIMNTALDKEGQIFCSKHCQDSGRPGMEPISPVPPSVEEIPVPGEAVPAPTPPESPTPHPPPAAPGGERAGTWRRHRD

Sequence of Serine/threonine-protein kinase PLK1 (Homo sapiens) (P53350 whole entry): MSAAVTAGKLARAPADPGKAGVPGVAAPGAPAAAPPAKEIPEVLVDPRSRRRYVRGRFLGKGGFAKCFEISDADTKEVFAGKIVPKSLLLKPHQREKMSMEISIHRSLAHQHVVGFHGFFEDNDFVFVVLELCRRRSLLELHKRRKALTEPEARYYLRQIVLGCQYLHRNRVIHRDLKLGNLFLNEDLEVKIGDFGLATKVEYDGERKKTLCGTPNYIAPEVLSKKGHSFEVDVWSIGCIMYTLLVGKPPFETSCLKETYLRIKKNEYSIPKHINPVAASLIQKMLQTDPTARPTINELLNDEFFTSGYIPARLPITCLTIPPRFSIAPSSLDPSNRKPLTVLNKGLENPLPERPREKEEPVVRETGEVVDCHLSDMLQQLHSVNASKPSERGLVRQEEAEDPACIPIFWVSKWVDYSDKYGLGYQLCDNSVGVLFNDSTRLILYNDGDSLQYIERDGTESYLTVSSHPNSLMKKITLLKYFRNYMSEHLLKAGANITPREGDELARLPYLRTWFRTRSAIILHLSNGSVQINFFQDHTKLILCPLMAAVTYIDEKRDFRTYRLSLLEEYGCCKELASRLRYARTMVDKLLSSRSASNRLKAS
Sequence of Ribosomal protein S6 kinase alpha-5 (Homo sapiens) (O75582 whole entry, looked up): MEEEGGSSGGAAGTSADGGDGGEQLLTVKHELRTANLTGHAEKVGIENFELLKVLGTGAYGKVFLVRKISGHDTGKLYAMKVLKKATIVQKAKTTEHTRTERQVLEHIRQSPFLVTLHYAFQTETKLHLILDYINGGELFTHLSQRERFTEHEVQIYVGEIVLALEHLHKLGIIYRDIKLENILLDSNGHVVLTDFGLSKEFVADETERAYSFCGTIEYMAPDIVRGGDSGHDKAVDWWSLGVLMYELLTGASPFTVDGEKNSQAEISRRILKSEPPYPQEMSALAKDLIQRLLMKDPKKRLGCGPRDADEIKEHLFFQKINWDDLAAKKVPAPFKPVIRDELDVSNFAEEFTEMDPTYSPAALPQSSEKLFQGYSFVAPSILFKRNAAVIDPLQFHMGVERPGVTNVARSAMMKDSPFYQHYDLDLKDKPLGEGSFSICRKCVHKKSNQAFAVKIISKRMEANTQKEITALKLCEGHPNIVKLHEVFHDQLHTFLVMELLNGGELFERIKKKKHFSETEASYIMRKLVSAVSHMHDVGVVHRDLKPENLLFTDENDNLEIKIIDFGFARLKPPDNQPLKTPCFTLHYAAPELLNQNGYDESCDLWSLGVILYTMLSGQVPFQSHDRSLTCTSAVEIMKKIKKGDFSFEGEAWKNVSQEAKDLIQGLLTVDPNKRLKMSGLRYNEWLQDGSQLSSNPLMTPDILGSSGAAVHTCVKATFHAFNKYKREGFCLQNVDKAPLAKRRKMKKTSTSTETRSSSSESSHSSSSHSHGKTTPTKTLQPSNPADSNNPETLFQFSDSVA
Sequence of Tyrosine-protein kinase Blk (Homo sapiens) (P51451 2-505 limits assumed): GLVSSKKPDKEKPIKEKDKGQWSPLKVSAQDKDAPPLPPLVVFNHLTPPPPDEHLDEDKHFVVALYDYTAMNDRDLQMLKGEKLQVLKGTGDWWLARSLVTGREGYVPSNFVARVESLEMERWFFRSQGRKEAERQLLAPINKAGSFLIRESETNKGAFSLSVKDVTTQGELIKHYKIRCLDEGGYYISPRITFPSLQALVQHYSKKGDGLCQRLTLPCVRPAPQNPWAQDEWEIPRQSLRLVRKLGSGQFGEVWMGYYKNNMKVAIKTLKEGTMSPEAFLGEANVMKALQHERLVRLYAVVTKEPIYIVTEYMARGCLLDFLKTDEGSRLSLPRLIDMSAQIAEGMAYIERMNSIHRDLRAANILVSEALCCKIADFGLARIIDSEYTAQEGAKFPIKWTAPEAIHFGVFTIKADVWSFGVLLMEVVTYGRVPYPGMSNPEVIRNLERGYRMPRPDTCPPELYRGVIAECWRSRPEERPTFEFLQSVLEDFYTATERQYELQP
Sequence of Serine/threonine-protein kinase WNK2 (Homo sapiens) (Q9Y3S1 whole entry): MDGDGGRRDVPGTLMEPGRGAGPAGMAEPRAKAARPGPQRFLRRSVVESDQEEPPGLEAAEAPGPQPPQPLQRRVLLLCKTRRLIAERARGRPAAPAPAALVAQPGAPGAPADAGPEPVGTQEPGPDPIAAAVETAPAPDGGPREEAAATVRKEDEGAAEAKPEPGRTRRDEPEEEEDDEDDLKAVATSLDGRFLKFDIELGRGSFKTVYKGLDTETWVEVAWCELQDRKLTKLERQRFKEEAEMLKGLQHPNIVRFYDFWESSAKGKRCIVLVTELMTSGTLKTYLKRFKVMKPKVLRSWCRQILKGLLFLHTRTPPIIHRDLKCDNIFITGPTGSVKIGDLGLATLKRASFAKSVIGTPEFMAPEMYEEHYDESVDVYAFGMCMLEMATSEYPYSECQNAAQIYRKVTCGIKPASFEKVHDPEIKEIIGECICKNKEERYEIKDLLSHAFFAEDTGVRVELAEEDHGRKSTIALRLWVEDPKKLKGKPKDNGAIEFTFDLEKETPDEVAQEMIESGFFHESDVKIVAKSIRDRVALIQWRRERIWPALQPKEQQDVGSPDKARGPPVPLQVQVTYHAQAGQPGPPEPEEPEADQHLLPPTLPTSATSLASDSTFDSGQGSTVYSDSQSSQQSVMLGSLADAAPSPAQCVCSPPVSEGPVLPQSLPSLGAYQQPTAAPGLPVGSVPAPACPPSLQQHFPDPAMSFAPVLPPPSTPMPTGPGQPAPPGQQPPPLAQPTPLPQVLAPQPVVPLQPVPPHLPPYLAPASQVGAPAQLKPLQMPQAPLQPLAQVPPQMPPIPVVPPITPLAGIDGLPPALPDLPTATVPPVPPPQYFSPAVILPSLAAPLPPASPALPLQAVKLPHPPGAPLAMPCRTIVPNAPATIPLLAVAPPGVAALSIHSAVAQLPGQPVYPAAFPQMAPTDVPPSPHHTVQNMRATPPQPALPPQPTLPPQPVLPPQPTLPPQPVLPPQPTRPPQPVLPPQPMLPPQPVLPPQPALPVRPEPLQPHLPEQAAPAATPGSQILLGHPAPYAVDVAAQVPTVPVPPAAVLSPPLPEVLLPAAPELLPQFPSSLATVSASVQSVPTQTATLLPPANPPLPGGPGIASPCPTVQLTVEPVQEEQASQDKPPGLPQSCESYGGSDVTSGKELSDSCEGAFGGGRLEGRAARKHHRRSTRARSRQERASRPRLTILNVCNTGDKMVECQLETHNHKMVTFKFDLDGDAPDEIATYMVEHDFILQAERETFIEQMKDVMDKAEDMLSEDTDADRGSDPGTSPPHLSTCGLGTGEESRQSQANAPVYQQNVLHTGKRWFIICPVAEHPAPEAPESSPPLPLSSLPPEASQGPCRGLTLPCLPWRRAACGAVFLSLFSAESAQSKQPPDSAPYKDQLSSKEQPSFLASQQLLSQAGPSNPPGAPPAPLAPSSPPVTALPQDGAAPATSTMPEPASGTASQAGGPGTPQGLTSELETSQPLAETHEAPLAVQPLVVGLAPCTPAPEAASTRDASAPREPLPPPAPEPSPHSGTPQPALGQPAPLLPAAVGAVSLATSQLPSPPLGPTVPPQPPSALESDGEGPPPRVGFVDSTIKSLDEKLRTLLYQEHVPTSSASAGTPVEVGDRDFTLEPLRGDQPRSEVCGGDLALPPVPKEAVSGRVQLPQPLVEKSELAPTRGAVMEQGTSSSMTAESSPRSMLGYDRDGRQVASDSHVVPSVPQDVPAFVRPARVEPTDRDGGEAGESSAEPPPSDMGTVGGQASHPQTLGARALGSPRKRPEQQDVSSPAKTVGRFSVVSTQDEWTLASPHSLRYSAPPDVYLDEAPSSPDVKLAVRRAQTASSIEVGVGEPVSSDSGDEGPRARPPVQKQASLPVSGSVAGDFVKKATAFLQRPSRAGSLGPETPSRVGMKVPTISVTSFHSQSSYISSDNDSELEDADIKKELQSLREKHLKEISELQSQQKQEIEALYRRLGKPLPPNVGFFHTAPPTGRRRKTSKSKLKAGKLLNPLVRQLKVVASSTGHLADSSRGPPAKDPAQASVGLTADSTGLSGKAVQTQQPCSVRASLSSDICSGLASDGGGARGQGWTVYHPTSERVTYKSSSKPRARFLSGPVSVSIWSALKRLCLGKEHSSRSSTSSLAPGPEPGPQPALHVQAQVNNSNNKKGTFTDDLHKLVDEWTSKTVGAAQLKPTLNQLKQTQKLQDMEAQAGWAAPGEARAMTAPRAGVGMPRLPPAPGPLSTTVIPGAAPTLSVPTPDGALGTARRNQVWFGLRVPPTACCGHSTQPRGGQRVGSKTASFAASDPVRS
Sequence of Ribosomal protein S6 kinase alpha-1 (Homo sapiens) (Q15418 whole entry): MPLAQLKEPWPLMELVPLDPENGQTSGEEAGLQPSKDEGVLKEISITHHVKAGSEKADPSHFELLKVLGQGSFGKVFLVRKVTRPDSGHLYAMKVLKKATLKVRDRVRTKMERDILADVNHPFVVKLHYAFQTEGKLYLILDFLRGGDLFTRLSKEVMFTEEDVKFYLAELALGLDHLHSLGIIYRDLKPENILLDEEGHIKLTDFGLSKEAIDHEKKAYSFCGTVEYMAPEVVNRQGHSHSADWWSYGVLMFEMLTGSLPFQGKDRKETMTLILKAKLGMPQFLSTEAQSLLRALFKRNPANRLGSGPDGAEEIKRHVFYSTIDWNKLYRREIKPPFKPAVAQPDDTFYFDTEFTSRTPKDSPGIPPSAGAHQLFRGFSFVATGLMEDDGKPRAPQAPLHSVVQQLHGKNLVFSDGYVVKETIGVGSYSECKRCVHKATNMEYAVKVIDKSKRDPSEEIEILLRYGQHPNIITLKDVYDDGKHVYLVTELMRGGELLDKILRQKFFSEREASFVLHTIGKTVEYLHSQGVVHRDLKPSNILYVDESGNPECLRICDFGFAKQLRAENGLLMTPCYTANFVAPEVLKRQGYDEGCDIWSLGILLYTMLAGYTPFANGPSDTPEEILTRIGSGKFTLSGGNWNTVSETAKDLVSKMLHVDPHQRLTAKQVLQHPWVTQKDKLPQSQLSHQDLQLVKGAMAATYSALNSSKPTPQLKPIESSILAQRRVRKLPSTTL

residual activity [1] [%]	residual activity [2] [%]	residual activity [3] [%]	residual activity [4] [%]	residual activity [5] [%]	residual activity [6] [%]	residual activity [7] [%]	residual activity [8] [%]	residual activity [9] [%]	residual activity [11] [%]	residual activity [12] [%]	residual activity [13] [%]	Structure (SMILES)	residual activity [10] [%]
267	124	142	84	91	97	6	112	80	64	96	71	COc1cc2c(Oc3ccc(-c4nc5ccccc5s4)cc3)ncnc2cc1OCCCN1CCCC1	86
377	206	112	96	94	111	12	105	98	63	89	80	COc1cc2c(Oc3ccc(-c4nc5ccccc5s4)cc3)ncnc2cc1OCCCN1CCN(C)CC1	81
215	222	36	88	98	109	27	125	82	58	86	76	COc1cc2c(Oc3ccc(-c4nc5ccccc5s4)cc3F)ncnc2cc1OCCCN1CCN(C)CC1	90
